Legend:
HEK293 = assay: Selectivity ratio of FLAG-tagged wild type AMPK beta1 (unknown origin) expressed in HEK293 cells over FLAG-tagged wild type AMPK beta2 (unknown origin) expressed in HEK293 cells; type: cell-based; conditions: Homo sapiens
[1] = molecular target: AMP-activated protein kinase (AMPK) alpha-1/beta-1/gamma-1 (Homo sapiens, UniProt P54619+Q13131+Q9Y478); assay: Binding affinity to human recombinant N-terminal AVI-tagged phosphorylated AMPK alpha1beta1gamma1 expressed in Escherichia coli BL21 cells after 1 to 10 mins by biolayer interferometry
AMPK alpha1/beta2/gamma1 = AMPK alpha1/beta2/gamma1 (Homo sapiens, UniProt O43741+P54619+Q13131); assay: Binding affinity to human recombinant N-terminal AVI-tagged phosphorylated AMPK alpha1beta2gamma1 expressed in Escherichia coli BL21 cells after 1 to 10 mins by biolayer interferometry
AMPK alpha1/beta2/gamma1, sequence (O43741 whole entry): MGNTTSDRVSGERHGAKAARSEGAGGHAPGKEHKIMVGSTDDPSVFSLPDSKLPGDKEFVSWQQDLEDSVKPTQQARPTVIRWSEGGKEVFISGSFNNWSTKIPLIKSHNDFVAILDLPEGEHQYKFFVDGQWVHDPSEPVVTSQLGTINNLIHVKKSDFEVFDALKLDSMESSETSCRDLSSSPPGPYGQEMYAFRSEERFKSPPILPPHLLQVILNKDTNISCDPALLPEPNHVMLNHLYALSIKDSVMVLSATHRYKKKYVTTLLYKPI
AMPK alpha1/beta2/gamma1, sequence (P54619 whole entry): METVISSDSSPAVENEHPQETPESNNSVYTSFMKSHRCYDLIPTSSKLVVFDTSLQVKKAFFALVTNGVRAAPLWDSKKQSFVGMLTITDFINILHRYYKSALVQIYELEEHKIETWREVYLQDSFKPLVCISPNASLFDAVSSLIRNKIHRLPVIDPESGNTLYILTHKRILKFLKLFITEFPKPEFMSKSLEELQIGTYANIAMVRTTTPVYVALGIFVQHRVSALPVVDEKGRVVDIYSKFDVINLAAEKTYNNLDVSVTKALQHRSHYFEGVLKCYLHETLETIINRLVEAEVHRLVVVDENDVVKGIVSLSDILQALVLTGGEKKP
AMPK alpha1/beta2/gamma1, sequence (Q13131 whole entry): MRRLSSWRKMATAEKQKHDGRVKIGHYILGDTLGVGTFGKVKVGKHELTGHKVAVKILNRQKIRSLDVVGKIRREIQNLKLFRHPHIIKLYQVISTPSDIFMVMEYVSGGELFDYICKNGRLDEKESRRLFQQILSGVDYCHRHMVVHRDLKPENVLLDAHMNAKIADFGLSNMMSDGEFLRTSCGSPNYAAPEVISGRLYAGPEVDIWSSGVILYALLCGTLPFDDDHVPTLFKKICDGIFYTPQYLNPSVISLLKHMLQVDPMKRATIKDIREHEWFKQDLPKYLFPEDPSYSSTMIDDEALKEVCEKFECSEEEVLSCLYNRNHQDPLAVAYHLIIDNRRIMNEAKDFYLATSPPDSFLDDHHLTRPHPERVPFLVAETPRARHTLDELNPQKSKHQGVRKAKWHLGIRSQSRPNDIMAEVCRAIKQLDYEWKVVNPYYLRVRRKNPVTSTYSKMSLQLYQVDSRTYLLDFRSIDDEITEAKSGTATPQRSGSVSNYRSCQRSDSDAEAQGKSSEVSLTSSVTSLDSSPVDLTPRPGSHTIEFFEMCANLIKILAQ

AMP-activated protein kinase (AMPK) alpha-1/beta-1/gamma-1, sequence (P54619 whole entry): as the sequence (P54619 whole entry) above
AMP-activated protein kinase (AMPK) alpha-1/beta-1/gamma-1, sequence (Q9Y478 whole entry): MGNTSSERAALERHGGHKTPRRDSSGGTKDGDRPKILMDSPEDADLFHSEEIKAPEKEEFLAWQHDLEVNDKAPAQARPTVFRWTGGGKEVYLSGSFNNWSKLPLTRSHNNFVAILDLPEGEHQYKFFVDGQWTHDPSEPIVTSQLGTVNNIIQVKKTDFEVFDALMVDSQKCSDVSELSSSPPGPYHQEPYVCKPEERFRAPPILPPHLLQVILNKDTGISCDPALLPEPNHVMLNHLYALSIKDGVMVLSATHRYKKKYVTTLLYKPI
AMP-activated protein kinase (AMPK) alpha-1/beta-1/gamma-1, sequence (Q13131 whole entry): as the sequence (Q13131 whole entry) above

## N#Cc1c(O)c2c(-c3ccc(-c4ccccc4O)cc3)csc2[nH]c1=O
HEK293
  Selectivity ratio: 30
[1]
  Kd: 0.51 µM
AMPK alpha1/beta2/gamma1
  Kd: 14.5 µM
